Test results: US8853188B2, “Compositions and methods for cancer treatment” (Women and Infants Hospital of RI, Inc., priority 2005, dated 2014)
“Also recorded” adds a separate entry of the source.

Columns and labels:
[1] = system: cytochrome-c; assay: Cyt-C immunoblot of cytosol of NB cells; format: cell-based; details: SMS-KCNR, SH-SY5Y and IMR-32 cells
Procedure: FIG. 10C. Cyt-C immunoblot of cytosol of NB cells: A and D-SMS-KCNR; B and E-5H-SY5Y and C and F-IMR-32.
(§1) In depth studies were carried out to assess the activation of intrinsic and extrinsic apoptotic pathways. […] Caspase-9 was activated by B3CD in these cells (FIG. 10B), indicating an active role of intrinsic pathway of apoptosis. […] However, caspase-8 was undetectable in IMR-32 and SH-SY5Y cells.

[2] = system: endothelial cells; assay: Apoptosis in endothelial cells (DNA fragmentation); format: cell-based
From the text: Apoptosis in EC by B3CD was studied by DNA fragmentation and caspase-3 activation analyses as before.

[3] = system: IMR-32 cells; assay: Proliferation of apoptosis-resistant NB cells; format: cell-based; details: data not shown
[4] = system: SK-N-SH, SH-Sy5Y, SMS-KCN and SMS-R neuroblastic cells; assay: Viability and proliferation of neuroblastoma cells, 48 hrs; format: cell-based; set-up: inhibition of proliferation: dose or concentration left out as unconfirmed
Procedure: (§2) Materials and methods. Proliferation was measured by MTS and BrdU incorporation assays. Apoptosis was assessed by DNA fragmentation, Cell Death Detection ELISA and caspase-3-assays. Effect of B3CD on TrkB signaling by BDNF was assessed by Western Blot analysis of AKT and ERK phosphorylation. The effect on angiogenesis was determined by chick chorioallantoic membrane (CAM) assay and aortic ring assay.
(§3) Neuroblastoma cells were treated with B3CD for 48 hrs. […] AT 0.5 nM, B3CD inhibited >50% (p<0.035) and >90% at […] (p<0.01) viability and proliferation respectively.

[5] = system: caspase-3; assay: Caspase-3 immunoblot in NB cells; format: cell-based; details: SMS-KCNR, IMR-32 and SH-SY5Y cells
Procedure: FIG. 10A. Caspase-3 immunoblot.
as §1

[6] = system: SK-N-SH cells; assay: Cell cycle analysis; format: cell-based; details: 400 nm
[7] = system: Human umbilical vein endothelial cells (HUVEC); assay: Endothelial cell viability / proliferation assay; format: cell-based; details: 25-400 nM, 24 hours
Procedure: Human umbilical vein endothelial cells (HUVEC) were treated with B3CD (25, 50, 100, 200 and 400 nM) for 24 hours and proliferation was measured as before. Vehicle and CD treated controls were used in each experiment. […] Following the treatment with B3CD, the endothelial cells were rounded up and floated, showing indications of apoptosis similar to NB.

[8] = mouse, in vivo
Procedure: FIG. 6A. In vivo studies to determine apparent systemic toxicity of B3CD. Mice were injected with the specified amounts of B3CD (i.p.) once in 48 hr for 28 days. The animals were weighed to assess the effect of B3CD on change in body weight.
FIG. 6B. At the end of the experiment (6A) mice were sacrificed and blood collected to estimate serum calcium as a measure of hypercalcemia.
A major concern was the potential systemic toxicity of B3CD due to hypercalcemia since B3CD (FIG. 1) is a derivative of calcidiol, which is a family member of calcitriol (Schmidt-Gayk H, Bouillon R, Roth H J. Measurement of vitamin D and its metabolites (calcidiol and calcitriol) and their clinical significance. Scand J Clin Lab Invest Suppl. 1997; 227:35-45). Therapeutic doses of calcitriol lead to increased serum calcium and consequently death; therefore, hypercalcemia is a hallmark of lethality of pharmacologic doses of calcitriol. In the event that further testing in vivo might show lethal calcemic side effects, preliminary studies were carried out to determine any overt toxic effects in a murine model.
The effect of B3CD on serum calcium levels in SCID mice was tested. These studies were carried out in Boston University School of Medicine, Boston, Mass., in accordance with institutional guidelines. B3CD, calcidiol and calcitriol were formulated in 80% polyethylene glycol in PBS and were administered as i.p. injections once in 48 hours for 28 days. Animals were euthanized, sera collected and analyzed immediately for serum calcium in the hospital core facility. The animals were divided into 4 groups of 5 animals each.

[9] = system: neuroblastic cells; assay: Apoptosis (DNA fragmentation, Cell Death Detection ELISA), FIG. 4A; format: cell-based
Procedure: as §2
(§4) B3CD was tested on the panel of cell described above. […] Such cell-type specificity is not uncommon. […] However, keratinocytes were not affected by B3CD (FIG. 4A; Lane-2). In addition, caspase-3 activity was increased by B3CD (FIG. 4B). These studies indicated an underlying apoptotic mechanism in the anticancer activity of B3CD.

[10] = system: breast cells; assay: Proliferation (MTS, BrdU), FIG. 3; format: cell-based
Procedure: as §2, §4

[11] = system: macrophage cells; assay: Proliferation (MTS, BrdU), FIG. 3; format: cell-based
Procedure: as §2, §4

[12] = system: neuroblastic cells; assay: Proliferation (MTS, BrdU), FIG. 3; format: cell-based
Procedure: as §2, §4

[13] = system: pancreatic cells; assay: Proliferation (MTS, BrdU), FIG. 3; format: cell-based
Procedure: as §2, §4

[14] = system: smooth muscle cells; assay: Proliferation (MTS, BrdU), FIG. 3; format: cell-based
Procedure: as §2, §4

[15] = system: osteosarcoma cells; assay: Proliferation (MTS, BrdU), FIG. 3; format: cell-based
Procedure: as §2, §4

[16] = system: endothelial cells; assay: Proliferation (MTS, BrdU), FIG. 3; format: cell-based
Procedure: as §2, §4

[17] = system: prostate cancer cells; assay: Proliferation (MTS, BrdU), FIG. 3; format: cell-based
Procedure: as §2, §4

[18] = system: skin cells; assay: Proliferation (MTS, BrdU), FIG. 3; format: cell-based
Procedure: as §2, §4

[19] = system: ovarian cancer cells; assay: Proliferation (MTS, BrdU), FIG. 3; format: cell-based
Procedure: as §2, §4

[20] = system: TrkB signaling by BDNF; assay: Effect on TrkB signaling by BDNF (Western Blot); format: cell-based; details: neuroblastoma cells
Procedure: as §2, §3

[21] = system: caspase-3; assay: Caspase-3 assay in neuroblastic cells, FIG. 4B; format: cell-based
Procedure: as §2, §4

[22] = system: SK-N-SH cells; assay: Proliferation by BrdU incorporation assay; format: cell-based; details: 0-800 nM, 48 hours
Procedure: SK-N-SH and SH-SY5Y neuroblastic cells were treated with increasing doses of calcidiol or B3CD (0, 25, 50, 100, 200, 400 and 800 nM) for 48 hours. Cell viability was assessed by MTS assay and proliferation was determined by BrdU incorporation assay.

[23] = system: caspase-8; assay: Caspase-8 immunoblot in NB cells; format: cell-based; details: SMS-KCNR cells
Procedure: FIG. 10D. Caspase-8 immunoblot.
as §1
Although caspase-8 was detected in SMS-KCNR cells, it was not activated by B3CD (FIG. 10D). Actin immunoblotting was used as loading control in the above studies (data not shown).

Question: Which “cytochrome-c release into cytosol” value [1] does the source give for `C=C1CC[C@H](OC(=O)CBr)C/C1=C/C=C1\CCC[C@]2(C)[C@@H]([C@H](C)CCCC(C)(C)O)CC[C@@H]12` [B3CD, bromoacetic acid 3-{2-[1-(5-hydroxy-1,5-dimethyl-hexyl)-7a-methyl-octahydro-inden-4-ylidene]-ethylidene}-4-methylene-cyclohexyl ester] here?
Answer: released into cytosol

Question: What about the DNA fragmentation [2] of the same compound?
Answer: DNA fragmentation characteristic of apoptosis

Question: What about the induction of apoptosis ([2]; data not shown) of the same compound?
Answer: induced apoptosis

Question: And the inhibition of proliferation [3]?
Answer: dose dependent inhibition of proliferation

Question: And the “inhibition of proliferation (in words)” value [4]?
Answer: dose dependent manner

Question: What about the cytotoxicity at 0.0005 µM ([4]; Neuroblastoma cell, 0.5 nM, p<0.035, read-out: inhibition of viability) of the same compound?
Answer: > 50%

Question: What about the inhibition of proliferation ([4]; p<0.01) of the same compound?
Answer: > 90%

Question: What about the “caspase-3 activation (immunoblot)” value [5] of the same compound?
Answer: activated

Question: What about the apoptotic cells ([6]; 7% in control) of the same compound?
Answer: 45%

Question: And the cell cycle effect ([6]; data not shown)?
Answer: G0/G1 block, inhibition of S-phase

Question: What about the “proliferation of EC” value [7] of the same compound?
Answer: strongly inhibited the proliferation

Question: What about the “viability of EC” value [7] of the same compound?
Answer: dose dependent decrease in viability

Question: What about the “clinical signs (lethargy, tolerance to handling, mobility)” value [8] of the same compound?
Answer: showed no such signs

Question: What about the “toxicity in murine models” value [8] of the same compound?
Answer: no toxicity

Question: And the “DNA laddering (apoptosis)” value [9]?
Answer: distinct DNA laddering characteristic of apoptosis

Question: And the induction of apoptosis [9]?
Answer: induced rapid apoptosis

Question: What about the effect on proliferation [10] of the same compound?
Answer: did not show an effect on proliferation

Question: And the effect on proliferation [11]?
Answer: did not show an effect on proliferation

Question: And the “antiproliferative and cytotoxic effects” value [12]?
Answer: potent antiproliferative and cytotoxic effects

Question: And the cell viability ([12]; by 24 hours)?
Answer: less than 15 % of the untreated control cells

Question: And the effect on proliferation [13]?
Answer: did not show an effect on proliferation

Question: What about the effect on proliferation [14] of the same compound?
Answer: did not show an effect on proliferation

Question: What about the effect on proliferation [15] of the same compound?
Answer: did not show an effect on proliferation

Question: What about the “antiproliferative and cytotoxic effects” value [16] of the same compound?
Answer: potent antiproliferative and cytotoxic effects; also recorded: inhibit proliferation

Question: What about the “antiproliferative and cytotoxic effects” value [17] of the same compound?
Answer: potent antiproliferative and cytotoxic effects

Question: What about the effect on proliferation [18] of the same compound?
Answer: did not show an effect on proliferation

Question: And the “antiproliferative and cytotoxic effects” value [19]?
Answer: potent antiproliferative and cytotoxic effects

Question: And the “TrkB signaling by BDNF” value [20]?
Answer: inhibited

Question: And the caspase-3 activity [21]?
Answer: increased; also recorded: activated caspase-3

Question: What about the “proliferation, BrdU incorporation” value [22] of the same compound?
Answer: strong inhibition of proliferation

Question: And the “caspase-8 activation (immunoblot)” value [23]?
Answer: not activated
